Measured values reported in patent publication US4396623A, “Carbocyclic analogs of uracil nucleosides as antiviral agents” (priority 1981, dated 1983).
Converted amounts (≈) assume the structure as drawn. “Also recorded” adds a separate entry of the source. Read-outs that look alike come from different tables or passages of the source. Values belong to the molecule of their own block, whether it stands above or below them.

Assays:
[1] = system: Type 2 herpes simplex virus; test: Antiviral test against Type 2 herpes simplex virus (Virus Rating); type: cell-based; conditions: for VR: Type 2 herpes simplex virus
Experimental: (§1) Carbocyclic analogs of 5-substituted-2'-deoxyuridines were tested for antiviral activity against viruses that replicate in mammalian cells growing in cell culture. The Virus Rating (VR) is a weighted measurement of antiviral activity determined by the method of Ehrlich et al, Annals of the New York Academy of Science, volume 130, pages 5-16, 1965. In tests carried out by this method, a VR of 0.5-0.9 indicates marginal to moderate antiviral activity and a VR equal to or greater than 1 indicates definite antiviral activity. The higher the value of VR, the greater is the antiviral activity. The MIC50 (minimum inhibitory concentration, 50%) is the concentration of a test compound required for 50% inhibition of virus-induced cytopathogenic effect.

[2] = system: herpes simplex virus, Type 1; test: Antiviral test against herpes simplex virus, Type 1, growing in rabbit kidney cells (Virus Rating, MIC50); type: cell-based; set-up: key to Virus Rating (VR) / VR: Ehrlich weighted score; 0.5-0.9 marginal-moderate, ≥1 definite activity; conditions: for Antiviral activity against herpes simplex virus, in words: same type of test as Table 1; for VR: same type of test against herpes simplex virus (Table 1)
Experimental: as §1
The results of antiviral tests, performed as described in Example 7, of 5-iodo-2'-deoxyuridine (IdUrd), the carbocyclic analog (Example 3) of 5-iodo-2'-deoxyuridine, 9-β-D-arabinofuranosyladenine (Ara-A), the carbocyclic analog (Example 2) of 5-bromo-2'-deoxyuridine, the carbocyclic analog (Example 5) of 5-(methylamino)-2'-deoxyuridine and the carbocyclic analog of thymidine are summarized in Table 3.

murine leukemia virus = test: Inhibition of murine leukemia virus replication in mouse embryo cells; type: cell-based
Description: (§2) Carbocyclic analogs of 5-substituted-2'-deoxyuridines may inhibit the replication of other DNA viruses. Thus, the carbocyclic analog (Example 3) of 5-iodo-2'-deoxyuridine is active against varicella-zoster virus replicating in human foreskin fibroblasts (Table 2). […] The IdUrd analog (Example 3) was also active against murine leukemia virus, an RNA tumor virus.

herpes simplex virus [3] = test: Activity against intracerebral herpes simplex virus in mice (herpes encephalitis); type: in vivo; conditions: for % of Infected Mice that lived 10 days or longer / % of Infected Mice that lived less than six days / Median Survival Time: treated seven days, 10x LD50 intracerebral; for Activity against herpes encephalitis in mice, in words: intracerebral herpes simplex virus
Experimental: Mice were inoculated intracerebrally with ten times the LD50 of herpes simplex virus. (The LD50 is the amount of virus that would be lethal to 50% of the inoculated animals.) Some of these virus-infected mice were treated for seven days with the carbocyclic analog (Example 3) of IdUrd, and some of these virus-infected mice were not treated and served as a control group.

varicella-zoster virus = test: Inhibition of varicella-zoster virus replication in human foreskin fibroblasts (virus yield-reduction); type: cell-based
Description: as §2
Virus titers are expressed in terms of log10 CCID50 (cell
culture infectious dose, 50%) units per ml., and the reduction in virus
yield after drug treatment is expressed as a logarithm.

herpes simplex virus [4] = conditions: F. M. Schabel, Jr., Chemotherapy 13, 321-328, 1968; listed as IdUrd; cited from earlier work
[5] = Table 1, rabbit kidney cells, VR 0.5-0.9 marginal to moderate, >=1 definite antiviral activity
[6] = Human alphaherpesvirus 1, Table 1, 50% inhibition of virus-induced cytopathogenic effect, rabbit kidney cells, read-out: MIC50 (minimum inhibitory concentration, 50%)
[7] = Human alphaherpesvirus 1, Table 3 comparison, read-out: MIC50

SMILES: O=c1[nH]c(=O)n([C@@H]2C[C@H](CO)[C@@H](O)C2)cc1I (relative stereo) [Example 3, (±)-1-[(1α,3β,4α)-3-Hydroxy-4-(hydroxymethyl)cyclopentyl]-5-iodo-2,4(1H,3H)-pyrimidinedione]
Activity against Type 2 herpes simplex virus, in words [1]: high activity
VR [1]: 3.4
EC50 ([2]; Human alphaherpesvirus 1, read-out: MIC50 (minimum inhibitory concentration, 50%), Table 1, 50% inhibition of virus-induced cytopathogenic effect, rabbit kidney cells): 0.3 µg/mL (≈ 0.852 µM)
Virus Rating (VR) [2, 5]: 7.1
Activity compared with IdUrd, in words ([2]; Table 3 tests): comparable in activity
Antiviral activity against herpes simplex virus, in words [2]: very high activity; also recorded: high activity
Activity against murine leukemia virus, in words (murine leukemia virus): active
Replication of murine leukemia virus in mouse embryo cells (murine leukemia virus; drug concentration of 32 μg/ml): completely inhibited
% of Infected Mice that lived 10 days or longer (herpes simplex virus [3]; 300 mg./kg.): 40%
% of Infected Mice that lived less than six days (herpes simplex virus [3]; 300 mg./kg.): 10%
Median Survival Time (herpes simplex virus [3]; 300 mg./kg.): 9.2 days
% of Infected Mice that lived 10 days or longer (herpes simplex virus [3]; 400 mg./kg.): 50%
% of Infected Mice that lived less than six days (herpes simplex virus [3]; 400 mg./kg.): 0%
Median Survival Time (herpes simplex virus [3]; 400 mg./kg.): 8.8 days
Activity against herpes encephalitis in mice, in words (herpes simplex virus [3]): active against herpes encephalitis
Activity against herpes encephalitis in mice, in words (herpes simplex virus [3]; listed as carbocyclic analog of 5-iodo-2'-deoxyuridine): active
Virus Yield Log10 CCID50 /ml (varicella-zoster virus; 32 μM): ≤ 0.5 Log10 CCID50 /ml
Virus-Induced Cytopathogenic Effects at 10 Days Postinfection, % (varicella-zoster virus; 32 μM, human foreskin fibroblasts): 0%
Virus Yield Log10 CCID50 /ml (varicella-zoster virus; 100 μM): ≤ 0.5 Log10 CCID50 /ml
Virus-Induced Cytopathogenic Effects at 10 Days Postinfection, % (varicella-zoster virus; 100 μM, human foreskin fibroblasts): 0%
Virus Yield Log10 CCID50 /ml (varicella-zoster virus; 320 μM): ≤ 0.5 Log10 CCID50 /ml
Virus-Induced Cytopathogenic Effects at 10 Days Postinfection, % (varicella-zoster virus; 320 μM, human foreskin fibroblasts): 0%
observable virus-induced cytopathogenic effects at 10 days postinfection, in words (varicella-zoster virus; 10 days postinfection): no observable virus-induced cytopathogenic effects
log reduction at 32 µM (varicella-zoster virus; Human alphaherpesvirus 3, Fibroblast, 32 μM, read-out: Log10 Reduction in Virus Titer): ≥ 4
log reduction at 100 µM (varicella-zoster virus; Human alphaherpesvirus 3, Fibroblast, 100 μM, read-out: Log10 Reduction in Virus Titer): ≥ 4
log reduction at 320 µM (varicella-zoster virus; Human alphaherpesvirus 3, Fibroblast, 320 μM, read-out: Log10 Reduction in Virus Titer): ≥ 4
Activity against varicella-zoster virus, in words (varicella-zoster virus; human foreskin fibroblasts): active
reduction in the titer of virus progeny (varicella-zoster virus; virus yield-reduction experiment): ≥ 4.0 log10

SMILES: O=c1[nH]c(=O)n([C@@H]2C[C@H](CO)[C@@H](O)C2)cc1F (relative stereo) [Formula I, X = F, R = R^1 = H, reference compound]
Virus Rating (VR) [2, 5]: 0
VR [2]: 0
Antiviral activity against herpes simplex virus, in words [2]: not active

SMILES: O=c1ccn([C@@H]2C[C@H](CO)[C@@H](O)C2)c(=O)[nH]1 (relative stereo) [Formula I, X = H, R = R^1 = H, (±)-1-[(1α,3β,4α)-3-hydroxy-4-(hydroxymethyl)cyclopentyl]-2,4(1H,3H)-pyrimidinedione, reference compound]
Virus Rating (VR) [2, 5]: 0
Antiviral activity against herpes simplex virus, in words [2]: not active

SMILES: Nc1cn([C@@H]2C[C@H](CO)[C@@H](O)C2)c(=O)[nH]c1=O (relative stereo) [reference compound]
VR [2]: 0.1
Antiviral activity against herpes simplex virus, in words [2]: devoid of significant activity

SMILES: Nc1ncnc2c1ncn2[C@@H]1O[C@H](CO)[C@@H](O)[C@@H]1O [9-β-D-Arabinofuranosyladenine (Ara-A), 9-β-D-arabinofuranosyladenine, reference compound]
EC50 ([2]; Human alphaherpesvirus 1, read-out: MIC50, Table 3 comparison): 9.8 µg/mL (≈ 36.7 µM)
Virus Rating (VR) (average) ([2]; Table 3 comparison, average): 2.7

More lines, main results first:

EC50 [2, 6]: 15 µg/mL (≈ 58.8 µM)
EC50 [2, 7]: 10 µg/mL (≈ 39.2 µM)
SMILES: CNc1cn([C@@H]2C[C@H](CO)[C@@H](O)C2)c(=O)[nH]c1=O (relative stereo) [Example 5, (±)-1-[(1α,3β,4α)-3-Hydroxy-4-(hydroxymethyl)cyclopentyl]-5-(methylamino)-2,4(1H,3H)-pyrimidinedione]
Activity against Type 2 herpes simplex virus, in words [1]: high activity
VR [1]: 1.2
Virus Rating (VR) [2, 5]: 3.9
Virus Rating (VR) ([2]; Table 3 comparison): 4.2
Antiviral activity against herpes simplex virus, in words [2]: very high activity; also recorded: active

EC50 [2, 6]: 290 µg/mL (≈ 975 µM)
SMILES: CCCCNc1cn([C@@H]2C[C@H](CO)[C@@H](O)C2)c(=O)[nH]c1=O (relative stereo) [Example 6, (±)-5-(Butylamino)-1-[(1α,3β,4α)-3-hydroxy-4-(hydroxymethyl)cyclopentyl]-2,4(1H,3H)-pyrimidinedione]
Virus Rating (VR) [2, 5]: 2.0
Antiviral activity against herpes simplex virus, in words [2]: active

EC50 [2, 6]: 10 µg/mL
SMILES: CC(=O)OC[C@H]1C[C@@H](n2cc(I)c(=O)[nH]c2=O)C[C@@H]1OC(C)=O (relative stereo) [Example 4, (±)-1-[(1α,3β,4α)-3-Hydroxy-4-(hydroxymethyl)cyclopentyl]-5-iodo-2,4(1H,3H)-pyrimidinedione Diacetate]
Virus Rating (VR) [2, 5]: 2.4

EC50 [2, 6]: 92 µg/mL
SMILES: CC(=O)OC[C@H]1C[C@@H](n2cc(Br)c(=O)[nH]c2=O)C[C@@H]1OC(C)=O (relative stereo) [Example 1, (±)-5-Bromo-1-[(1α,3β,4α)-3-hydroxy-4-(hydroxymethyl)cyclopentyl]-2,4(1H,3H)-pyrimidinedione Diacetate]
Virus Rating (VR) [2, 5]: 1.3

EC50 [2, 7]: 0.3 µg/mL (≈ 0.847 µM)
SMILES: O=c1[nH]c(=O)n([C@H]2C[C@H](O)[C@@H](CO)O2)cc1I [5-Iodo-2'-deoxyuridine, 5-iodo-2'-deoxyuridine]
Activity against herpes encephalitis in mice, in words (herpes simplex virus [4]): not active; also recorded: does not exhibit this type of antiviral activity

EC50 [2, 7]: 0.8 µg/mL (≈ 3.33 µM)
SMILES: Cc1cn([C@@H]2C[C@H](CO)[C@@H](O)C2)c(=O)[nH]c1=O (relative stereo) [Carbocyclic analog of thymidine]
Activity against Type 2 herpes simplex virus, in words [1]: high activity
VR [1]: 3.2
Virus Rating (VR) [2, 5]: 5.4
Virus Rating (VR) ([2]; Table 3 comparison): 5.4
Antiviral activity against herpes simplex virus, in words [2]: very high activity

EC50 [2, 7]: 0.3 µg/mL (≈ 0.983 µM)
SMILES: O=c1[nH]c(=O)n([C@@H]2C[C@H](CO)[C@@H](O)C2)cc1Br (relative stereo) [Example 2, (±)-5-Bromo-1-[(1α,3β,4α)-3-hydroxy-4-(hydroxymethyl)cyclopentyl]-2,4(1H,3H)-pyrimidinedione]
Activity against Type 2 herpes simplex virus, in words [1]: high activity
VR [1]: 1.5
Virus Rating (VR) [2, 5]: 6.2
Virus Rating (VR) ([2]; Table 3 comparison): 6.2
Antiviral activity against herpes simplex virus, in words [2]: very high activity; also recorded: high activity
